Data set [1] can be described thus: Partition coefficient of drugs and BAK in macroporous pHEMA gel. It counts as physicochemical. Conditions: for Partition coefficient in macroporous pHEMA gel: 250 mg gel soaked in 12 mL drug or BAK solution in PBS, 15 days, mean ± SD, n = 3; for Partition coefficient smaller than that of BAK: macroporous pHEMA gel. The protocol:
As indicated above, the absorption percentage of hydrophilic drug is small, whereas a significant amount of hydrophobic drug is uptake by the macroporous pHEMA gel. The high affinity of hydrophobic drug to the gel can be determined by measuring the partition coefficient of the drug in the gel. To measure the partition coefficient, a piece of macroporous pHEMA gel of 250 mg was soaked in 12 mL of drug or BAK solution. After 15 days of soaking, the concentration of the drug or BAK solution was measured by using UV-Vis spectrophotometry. The drug or BAK concentration after soaking indicated the amount of drug or BAK in reference to the initial concentration is that absorbed into the gel. The partition coefficient of timolol and dorzolamide in macroporous pHEMA gel is roughly 15 times smaller than that of BAK, which is excellent separation efficiency. In contrast, the partition coefficients of latanoprost and BAK are pretty high and the separation efficiency of the gel for this mixture is poor.

Data set [2] in a line: BAK/drug removal by macroporous pHEMA gel plug packed in syringe, 10 consecutive passes. Conditions: for Drug adsorption percentage: first pass through the 10th pass, macroporous pHEMA gel; for Percentage removed/absorbed after passing through plug: 2.5 mL through 5 mm macroporous pHEMA gel, 1 cm syringe. It is filed as physicochemical. The protocol:
The four drugs were dissolved in PBS and mixed with BAK individually. The macroporous pHEMA hydrogel prepared as above, was used as the BAK removal filter and packed into the syringe, as described above. The experimental setup is that of FIG. 3. […] The solution that passed through the filter plug was collected and the concentration of drug/BAK was determined by measuring the UV-Vis spectra. The measured UV spectrum was a linear combination of the testing drug and BAK and thus, the individual concentration of the drug and BAK could be determined by applying a least square fit method as described in Kim et al. Int. J.

The nature of data set [3]: BAK/drug removal by crushed macroporous pHEMA particles packed in syringe, passes separated by 24 hours. It is filed as physicochemical. The protocol:
Macroporous pHEMA hydrogel as prepared above was dried in the oven of 80° C. and crushed into particles and the particles packed into the syringe. Two pieces of filter papers were placed at the bottom of the syringe to prevent the packing particles from leaking out. Particles facilitate packing of a hydrogel into the neck of the eye drop bottle where packing is amenable to high-throughput industrial scale loading of gel filters. […] The process was timed using a stopwatch from the moment of placing the weight to the last drop entered the beaker. The weight of the collected solution in the beaker was measured to calculate the flow rate through the pHEMA particles. […] The UV spectrum of the collected solution was measured and the individual concentration of the drug and BAK were determined by a least square fit method as described in Kim et al., Int. J. […] After each measurement, the bottom outlet of the syringe was sealed with parafilm to prevent dehydration of the packed pHEMA particles in the manner equivalent to sealing the eye drop bottle with the cap after use.

Data set [4] in a line: Timolol/BAK separation by pHEMA particles with SR9035 cross-linker in eye drop bottle prototype. It counts as physicochemical. An excerpt: (§1) More rigid and larger size particles create a larger void space for fluid to flow and improved hydraulic permeability. […] This would be undesirable because the plug is drug at the time of the instillation of the first drop but then could be partially or fully hydrated for subsequent instillations, depending on whether the plug retains the fluid in the interim time between successive instillations. […] During the UV curing, the mixture was continuously stirred by a 35×6 mm magnetic stirring bar at 70 rpm. In addition, the petri dish was covered to avoid water evaporation and oxygenation. After polymerization, the pHEMA gel were separated from the solution by vacuum filtration method and washed with a large quantity of DI water to remove the unreacted monomers and other impurities. The pHEMA gel was then dried in an oven of 80° C. and crushed into particles in a mortar. Selectivity of the separation of BAK from timolol was measured. […] A constant pressure drop was applied across the packed particles to maintain a constant flow rate through the plug. […] The UV spectrum of the outlet solution was measured and the concentrations of the drug and BAK were determined by the least square fit method described in Kim et al., Int. J. […] The tip of the prototype bottle was sealed with parafilm. […] The step was repeated 10 times over a total of 10 days.

Data set [5] in a line: Timolol/BAK separation by heat-initiated pHEMA particles in eye drop bottle prototype. It is filed as physicochemical. The protocol:
FIG. 24 indicates the percentages of BAK and timolol that were absorbed after the mixture in solution was passed through the heat-initiated pHEMA particles, shown in FIG. 18. […] The hydraulic permeability of the packing particles is 0.0459 Darcy which was measured as described, above. […] The size of the particles prepared by UV or heat-initiated polymerization is similar. […] The drug/BAK solution was injected into the prototype bottle with a syringe. […] The UV spectrum of the outlet solution was measured and the individual concentration of the drug and BAK was determined by a least square fit method as described in Kim et al., Int. J.

Data set [6] can be described thus: Timolol/BAK separation by UV-initiated pHEMA particles (EGDMA) in eye drop bottle prototype. It is filed as physicochemical. An excerpt: The sodium chloride promoted phase separation of the mixture. Small globules containing HEMA monomer and EGDMA was formed by continuously stirring the system at high rpm. […] In addition, the petri dish was covered to avoid water evaporation and oxygenation. After the polymerization, the pHEMA particles were separated from the solution by vacuum filtration method and washed with a large quantity of DI water to remove the unreacted monomers and other impurities. The particles were then dried in an oven of 80° C. […] The synthesized particles were packed in the prototype bottle and tested for their selectivity of separation of BAK from timolol. […] The drug/BAK solution was injected into the prototype bottle with a syringe. A clip was applied to the bottle to impose a constant pressure drop. […] The UV spectrum of the outlet solution was measured and the concentrations of the drug and BAK were determined by the least square fit method described in Kim et al., Int. J. Pharm., 2008, Apr. 2; 353(1-2):205-22. Five samples were successively removed through the plug.

Data set [7] is described as follows: Partition coefficient in pHEMA particles prepared using SR9035 as cross-linker. It is filed as physicochemical. As to conditions: 100 mg particles soaked in 3.5 mL solution, 9 days. The protocol:
The partition coefficients of timolol, CMC and BAK in pHEMA particles prepared using SR9035 as cross-linker was measured. pHEMA particles (100 mg) were soaked in 3.5 mL of timolol, CMC and BAK solution, which concentration was 0.08 mg/mL, 0.5% and 2.4 mg/mL, respectively. After 9 days of soaking, the concentration of the drug or BAK solution was measured by using UV-Vis spectrophotometry. The drug or BAK concentration after soaking indicated the amount of drug or BAK that absorbed into the gel relative to the initial concentration. The partition coefficient of timolol and CMC in pHEMA particles is much smaller than that of BAK, and should have excellent separation efficiency.

Data set [8] in a line: Timolol/BAK separation by pHEMA particles with SR454HP cross-linker in eye drop bottle prototype. It counts as physicochemical.
Excerpt: as §1

Data set [9] can be described thus: Latanoprost/BAK separation by crushed macroporous pHEMA particles in eye drop bottle prototype. It counts as physicochemical. As to conditions: all 10 runs over 10 days; 1.5 mL, 8 mm plug, particles pre-equilibrated with latanoprost. The protocol:
The crushed macroporous pHEMA particles were prepared as described above. The particles were packed in the eye drop bottle prototype (FIG. 19) to test its selectivity of separation of BAK from latanoprost. The concentration of latanoprost and BAK prepared for the testing were both 0.03 mg/mL with PBS as the solvent. The drug/BAK solution was injected into the prototype bottle with a syringe. A clip was clipping on the bottle to create a constant pressure drop across the packing pHEMA particles of 8 mm in length. A volume of 1.5 mL of the drug/BAK solution was passed through the filter by squeezing the bottle. The UV spectrum of the outlet solution was measured and the individual concentration of the drug and BAK was determined by a least square fit method as described in Kim et al., Int. J. Pharm., 2008, Apr. 2; 353(1-2):205-22. The tip of the prototype bottle was sealed with parafilm. After 24 hours, another 1.5 mL drug/BAK solution was removed through the same filter and again to measure the concentrations of the drug and BAK. The step was repeated 10 times over a total of 10 days.

Data set [10] is described as follows: Binding of BAK and drugs to pHEMA matrix (general statement). It counts as physicochemical.
Data set [11] in a line: Partition coefficient of BAK in pHEMA particles prepared by heat-initiated polymerization. It counts as physicochemical.
For data set [12] the following is noted: 3 consecutive runs; hydrogel treated with 1% MAA.
Description: The hydrogel was packed into the syringe as BAK removal filter and its separation efficiency of BAK from dexamethasone was tested in the same manner as the copolymer.

Where a name gives a salt, the structure may show the parent alone. Read-outs that look alike come from different tables or passages of the source. Marks after values point to notes of the source that are not given here.

In the case of `C[C@@H]1C[C@H]2[C@@H]3CCC4=CC(=O)C=C[C@]4(C)[C@@]3(F)[C@@H](O)C[C@]2(C)[C@@]1(O)C(=O)CO` [Dexamethasone, dexamethasone], in data set [1], the “Partition coefficient in macroporous pHEMA gel” value came to 33.53 ± 1.31.

As to `CCN[C@H]1C[C@H](C)S(=O)(=O)c2sc(S(N)(=O)=O)cc21` [Dorzolamide, dorzolamide hydrochloride], in [2], the Drug adsorption percentage result is recorded as “about 5%”. Also, in data set [1], the “Partition coefficient in macroporous pHEMA gel” value is listed as 7.59 ± 0.56 and the “Partition coefficient smaller than that of BAK” value is “roughly 15 times”.

As to `CC(C)OC(=O)CCC/C=C\C[C@@H]1[C@@H](CC[C@@H](O)CCc2ccccc2)[C@H](O)C[C@@H]1O` [Latanoprost, latanoprost], the “Portion of drug absorbed” value in data set [3] (particles pre-equilibrated with the corresponding drug solution) is on record as “only a very small portion”. Besides, the “Percentage removed/absorbed after passing through plug” value in [2] (10th pass) was found to be 30%; in data set [2] (first run), 90%. Besides, the “Partition coefficient in macroporous pHEMA gel” value in data set [1] is on record as 90.18 ± 1.36.

For the compound `CC(C)(C)NC[C@H](O)COc1nsnc1N1CCOCC1` [Timolol, timolol maleate], the Percentage removed result in data set [4] (1st run) is on record as “About 25%”; in data set [5] (1st run), “About 17%”; in [5] (10th run) it was “about 3%”; in data set [6] (each of the 5 runs) it was “about 1.5%”; in data set [8] (1st run), “About 18%”. Also, the Amount removed result in data set [4] (after the 5th run) and in data set [8] (10th run) was “negligible” throughout. Besides, in data set [2], the Drug adsorption percentage result was “about 5%”. Further, in [1], the “Partition coefficient in macroporous pHEMA gel” value was 6.49 ± 0.37. In addition, in data set [1], the “Partition coefficient smaller than that of BAK” value is recorded as “roughly 15 times”. Besides, in data set [7], the “Partition coefficient in pHEMA particles prepared by using SR9035 as cross-linker” value is 5.59 ± 0.13^a.

Take Benzalkonium chloride [BAK]: the “Percentage of BAK removed” value is listed as approximately 100% in [9]; approximately 100% in data set [3] (all 10 passes, each separated by 24 hours, regardless of the drug in the solution); approximately 100% in data set [12]. Also, the Percentage removed entry is “about 95%” in data set [4] (10th run); approximately 100% in data set [4] (first 6th runs, 1.5 mL daily, 1.8 cm plug); approximately 100% in data set [5] (each of 10 passes carried out successively, 1.5 mL, 8 mm plug); 30% in [6] (5th run, 1.5 mL, 8 mm plug); “Roughly 50%” in data set [6] (first pass, 1.5 mL, 8 mm plug); “about 90%” in [8] (after the 5th run). The same compound had a Percentage removed in data set [8] (first 3-5th runs, 1.5 mL daily, 1.8 cm plug) of approximately 100%. The “Adsorption time on pHEMA” value in [10] (compared with transit time through plug) was less than 3 s. In addition, the “Partition coefficient into the pHEMA matrix” value in data set [10] (depending on BAK concentration and structure of the pHEMA matrix) is recorded as 100-500. Moreover, in data set [11], the “Partition coefficient of BAK in pHEMA particles prepared by heat-initiated polymerization” value is 200-250. Besides, the “Percentage removed/absorbed after passing through plug” value in [2] (10th pass) is recorded as 70-80%; in [2] (first run), 100%. Further, the “Partition coefficient in pHEMA particles prepared by using SR9035 as cross-linker” value in [7] is on record as approximately 300.

Values taken from patent US10123904B2, “Preservative removal from eye drops” (University of Florida Research Foundation, Inc., priority 2014, dated 2018).
